In ChEMBL document CHEMBL2176903, “P2-substituted N-acylprolylpyrrolidine inhibitors of prolyl oligopeptidase: biochemical evaluation, binding mode determination, and assessment in a cellular model of synucleinopathy” (J Med Chem, 2012) one finds IC50 data, which are given here for 27 compounds.

Each structure is given as a SMILES string.

One assay concerns the target Dipeptidyl peptidase 4 (Homo sapiens, UniProt P27487). Kind of assay: Inhibition of human seminal plasma DPP4 assessed as pNA release from Gly-Pro-p-nitroanilide substrate pre-incubated with enzyme for 15 min prior to substrate addition by […].
The target of a further assay is Prolyl endopeptidase (Sus scrofa, UniProt P23687). Kind of assay: Inhibition of pig PREP expressed in Escherichia coli using Z-Gly-Pro-p-nitroanilide substrate.
Chain of Prolyl endopeptidase (P23687 whole entry): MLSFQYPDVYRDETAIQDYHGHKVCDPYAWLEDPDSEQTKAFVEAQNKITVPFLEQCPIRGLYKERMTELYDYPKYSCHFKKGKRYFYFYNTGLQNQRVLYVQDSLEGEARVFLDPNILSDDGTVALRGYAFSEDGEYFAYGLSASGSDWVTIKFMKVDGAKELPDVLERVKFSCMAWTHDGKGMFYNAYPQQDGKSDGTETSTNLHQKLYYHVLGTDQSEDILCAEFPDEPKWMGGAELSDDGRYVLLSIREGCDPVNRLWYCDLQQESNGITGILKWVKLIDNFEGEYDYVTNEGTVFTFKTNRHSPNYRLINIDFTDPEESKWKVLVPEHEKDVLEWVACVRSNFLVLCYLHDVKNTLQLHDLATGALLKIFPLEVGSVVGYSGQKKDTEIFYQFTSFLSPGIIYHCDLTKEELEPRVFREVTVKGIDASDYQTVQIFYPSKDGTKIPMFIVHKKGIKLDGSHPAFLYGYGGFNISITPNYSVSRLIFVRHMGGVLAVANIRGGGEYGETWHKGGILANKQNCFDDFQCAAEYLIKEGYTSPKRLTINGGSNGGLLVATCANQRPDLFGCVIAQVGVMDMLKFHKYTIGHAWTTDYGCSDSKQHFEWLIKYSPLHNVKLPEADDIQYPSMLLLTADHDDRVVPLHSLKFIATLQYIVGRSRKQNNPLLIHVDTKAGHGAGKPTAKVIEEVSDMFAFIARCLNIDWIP
A further assay concerns the target Dipeptidyl peptidase 2 (Homo sapiens, UniProt Q9UHL4). Kind of assay: Inhibition of human seminal plasma DPP2 assessed as pNA release from Lys-Ala-p-nitroanilide substrate pre-incubated with enzyme for 15 min prior to substrate addition by […].
The nature of assay [1]: Inhibition of bovine testes DPP9 assessed as pNA release from Ala-Pro- p-nitroanilide substrate pre-incubated with enzyme for 15 min prior to substrate addition by […]. Details: species or system Bos taurus.
For another assay, the target named is T1, Prolyl endopeptidase FAP (Mus musculus, UniProt P97321).
T1 sequence (P97321 whole entry): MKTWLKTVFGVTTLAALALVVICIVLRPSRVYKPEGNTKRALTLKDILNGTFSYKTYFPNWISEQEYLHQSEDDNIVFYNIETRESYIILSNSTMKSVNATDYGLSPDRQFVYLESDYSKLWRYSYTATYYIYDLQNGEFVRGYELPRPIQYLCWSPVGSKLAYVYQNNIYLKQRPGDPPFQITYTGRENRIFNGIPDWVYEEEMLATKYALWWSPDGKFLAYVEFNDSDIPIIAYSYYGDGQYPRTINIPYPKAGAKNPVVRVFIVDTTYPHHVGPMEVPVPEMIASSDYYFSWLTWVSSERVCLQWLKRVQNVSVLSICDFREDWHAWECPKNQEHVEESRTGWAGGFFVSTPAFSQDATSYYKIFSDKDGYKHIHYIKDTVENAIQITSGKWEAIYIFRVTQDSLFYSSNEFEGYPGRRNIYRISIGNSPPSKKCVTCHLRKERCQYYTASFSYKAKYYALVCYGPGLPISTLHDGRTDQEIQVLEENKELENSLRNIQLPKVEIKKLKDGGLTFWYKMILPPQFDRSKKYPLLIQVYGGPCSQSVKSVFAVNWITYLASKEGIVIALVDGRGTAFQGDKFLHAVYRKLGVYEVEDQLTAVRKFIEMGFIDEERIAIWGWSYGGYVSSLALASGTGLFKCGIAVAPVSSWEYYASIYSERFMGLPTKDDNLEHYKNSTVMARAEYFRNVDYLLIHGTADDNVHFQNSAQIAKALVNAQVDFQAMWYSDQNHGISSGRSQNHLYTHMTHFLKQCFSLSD
Kind of assay: Inhibition of mouse recombinant FAP expressed in HEK293 cells assessed as pNA release from Ala-Pro-p-nitroanilide pre-incubated with enzyme for 15 mins prior to substrate addition by […]. The assay is classed as cell-based.

Chain of Dipeptidyl peptidase 4 (P27487 whole entry): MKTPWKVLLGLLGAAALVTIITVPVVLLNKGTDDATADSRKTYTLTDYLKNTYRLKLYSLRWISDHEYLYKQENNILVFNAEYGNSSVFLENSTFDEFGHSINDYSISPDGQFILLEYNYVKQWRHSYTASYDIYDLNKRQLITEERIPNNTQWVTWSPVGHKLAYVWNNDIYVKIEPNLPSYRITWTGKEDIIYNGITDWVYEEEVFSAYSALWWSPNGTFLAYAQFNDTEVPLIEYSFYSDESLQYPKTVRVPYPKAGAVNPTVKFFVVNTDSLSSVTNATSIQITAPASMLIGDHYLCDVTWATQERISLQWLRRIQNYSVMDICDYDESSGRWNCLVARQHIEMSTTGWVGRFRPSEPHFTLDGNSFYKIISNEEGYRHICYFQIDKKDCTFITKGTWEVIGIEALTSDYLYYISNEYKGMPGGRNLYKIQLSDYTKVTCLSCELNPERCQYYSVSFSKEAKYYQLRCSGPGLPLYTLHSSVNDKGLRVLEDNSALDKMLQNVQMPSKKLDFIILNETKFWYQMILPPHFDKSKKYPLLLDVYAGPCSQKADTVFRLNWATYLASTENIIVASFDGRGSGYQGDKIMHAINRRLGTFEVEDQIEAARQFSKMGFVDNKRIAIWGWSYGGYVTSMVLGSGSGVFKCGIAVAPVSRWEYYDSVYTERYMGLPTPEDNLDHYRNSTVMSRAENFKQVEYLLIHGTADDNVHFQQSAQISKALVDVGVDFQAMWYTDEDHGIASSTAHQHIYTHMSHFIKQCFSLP

With `O=C([C@@H]1C[C@H](n2cc(-c3ccccc3)nn2)CN1C(=O)CCCc1ccccc1)N1CCCC1`, the IC50 was > 100 µM on Dipeptidyl peptidase 4, 0.17 µM against Prolyl endopeptidase, > 100 µM on Dipeptidyl peptidase 2 and > 100 µM in assay [1].

For the compound `O=C([C@@H]1CCCN1C(=O)OCc1ccccc1)N1CCCC1`, the IC50 (on Dipeptidyl peptidase 4; on Dipeptidyl peptidase 2; in assay [1]; on Prolyl endopeptidase FAP) was > 100 µM each time.

For `O=C([C@@H]1C[C@H](n2cc(-c3ccc(F)cc3F)nn2)CN1C(=O)CCCc1ccccc1)N1CCCC1`, the 50% inhibitory concentration (IC50) was > 100 µM at Dipeptidyl peptidase 4; 0.024 µM against Prolyl endopeptidase; > 100 µM on Dipeptidyl peptidase 2; > 10 µM in assay [1]; > 5 µM at Prolyl endopeptidase FAP.

For the compound `O=C([C@@H]1C[C@H](n2cc(-c3ccccn3)nn2)CN1C(=O)OCc1ccccc1)N1CCCC1`, the IC50 is > 100 µM on Dipeptidyl peptidase 4; 0.357 µM at Prolyl endopeptidase; > 100 µM on Dipeptidyl peptidase 2; 53 µM in assay [1]; > 100 µM at Prolyl endopeptidase FAP.

`CN(C)Cc1cn([C@H]2C[C@@H](C(=O)N3CCCC3)N(C(=O)CCCc3ccccc3)C2)nn1`: the IC50 on Dipeptidyl peptidase 4 is > 100 µM; at Prolyl endopeptidase, 0.024 µM; at Dipeptidyl peptidase 2 it was > 100 µM; in assay [1] it was > 10 µM.

With `O=C([C@@H]1C[C@H](n2cc(-c3ccc(F)cc3)nn2)CN1C(=O)CCCc1ccccc1)N1CCCC1`, the half-inhibitory concentration (IC50) is > 100 µM on Dipeptidyl peptidase 4, 0.033 µM against Prolyl endopeptidase, > 100 µM at Dipeptidyl peptidase 2 and > 100 µM in assay [1].

In the case of `N#C[C@@H]1CCCN1C(=O)[C@@H]1CCCN1C(=O)CCCc1ccccc1`, the IC50 was > 100 µM on Dipeptidyl peptidase 4, > 100 µM at Dipeptidyl peptidase 2, > 100 µM in assay [1] and > 10 µM at Prolyl endopeptidase FAP.

For the compound `[N-]=[N+]=N[C@H]1C[C@@H](C(=O)N2CCCC2)N(C(=O)CCCc2ccccc2)C1`, the IC50 was > 100 µM at Dipeptidyl peptidase 4; 0.142 µM at Prolyl endopeptidase; > 100 µM at Dipeptidyl peptidase 2; > 100 µM in assay [1]; > 100 µM on Prolyl endopeptidase FAP.

With `O=C([C@@H]1C[C@H](n2cc(C3CC3)nn2)CN1C(=O)CCCc1ccccc1)N1CCCC1`, the IC50 on Dipeptidyl peptidase 4 is > 100 µM; against Prolyl endopeptidase it was 0.039 µM; at Dipeptidyl peptidase 2, > 100 µM; in assay [1], > 10 µM; on Prolyl endopeptidase FAP, > 100 µM.

For the compound `CC(C)(C)OC(=O)NCc1cn([C@@H]2C[C@@H](C(=O)N3CCCC3)N(C(=O)CCCc3ccccc3)C2)nn1`, the IC50 at Dipeptidyl peptidase 4 was > 100 µM; against Prolyl endopeptidase, 0.28 µM; at Dipeptidyl peptidase 2 it was > 100 µM; in assay [1], > 100 µM; at Prolyl endopeptidase FAP it was > 100 µM.

As to `CC(C)(C)OC(=O)NCc1cn([C@H]2C[C@@H](C(=O)N3CCCC3)N(C(=O)OCc3ccccc3)C2)nn1`, the IC50 was > 100 µM at Dipeptidyl peptidase 4; 0.141 µM against Prolyl endopeptidase; > 100 µM on Dipeptidyl peptidase 2; > 10 µM in assay [1]; > 100 µM at Prolyl endopeptidase FAP.

Take `O=C([C@@H]1C[C@H](n2cc(-c3ccc(Br)cc3)nn2)CN1C(=O)CCCc1ccccc1)N1CCCC1`: the IC50 on Dipeptidyl peptidase 4 is > 100 µM; on Prolyl endopeptidase, 0.014 µM; at Dipeptidyl peptidase 2, > 100 µM; in assay [1] it was > 10 µM; on Prolyl endopeptidase FAP it was > 100 µM.

`O=C([C@@H]1C[C@H](n2cc(COCc3ccccc3)nn2)CN1C(=O)CCCc1ccccc1)N1CCCC1`: the concentration for half-maximal inhibition (IC50) at Dipeptidyl peptidase 4 is > 100 µM; against Prolyl endopeptidase, 0.131 µM; at Dipeptidyl peptidase 2, > 100 µM; in assay [1] it was > 100 µM.

Consider `O=C([C@@H]1C[C@H](n2cc(CN3CCOCC3)nn2)CN1C(=O)CCCc1ccccc1)N1CCCC1`, for which the IC50 on Dipeptidyl peptidase 4 is > 50 µM; at Prolyl endopeptidase, 0.24 µM; at Dipeptidyl peptidase 2, > 100 µM; in assay [1], 1.1 µM; at Prolyl endopeptidase FAP, > 100 µM.

Regarding `NCc1cn([C@H]2C[C@@H](C(=O)N3CCCC3)N(C(=O)CCCc3ccccc3)C2)nn1`, the IC50 is > 100 µM at Dipeptidyl peptidase 4; 0.17 µM against Prolyl endopeptidase; > 10 µM at Dipeptidyl peptidase 2; > 100 µM in assay [1]; > 100 µM at Prolyl endopeptidase FAP.

As to `O=C([C@@H]1C[C@@H](n2cc(-c3ccccc3)nn2)CN1C(=O)CCCc1ccccc1)N1CCCC1`, the IC50 on Dipeptidyl peptidase 4 was > 100 µM; at Prolyl endopeptidase, 0.542 µM; on Dipeptidyl peptidase 2, > 100 µM; in assay [1] it was > 50 µM.

For the compound `O=C([C@@H]1C[C@H](n2ccnn2)CN1C(=O)OCc1ccccc1)N1CCCC1`, the half-inhibitory concentration (IC50) on Dipeptidyl peptidase 4 was > 100 µM; against Prolyl endopeptidase it was 1.16 µM; at Dipeptidyl peptidase 2 it was > 100 µM; in assay [1], 67 µM; at Prolyl endopeptidase FAP, > 100 µM.

`Cn1cnc(-c2cn([C@H]3C[C@@H](C(=O)N4CCCC4)N(C(=O)CCCc4ccccc4)C3)nn2)c1` showed an IC50 against Prolyl endopeptidase of 0.09 µM.

For `CC(C)(C)OC(=O)N1CCN(Cc2cn([C@H]3C[C@@H](C(=O)N4CCCC4)N(C(=O)CCCc4ccccc4)C3)nn2)CC1`, the 50% inhibitory concentration (IC50) at Dipeptidyl peptidase 4 was > 100 µM; on Prolyl endopeptidase it was 0.11 µM; on Dipeptidyl peptidase 2 it was > 100 µM; in assay [1], 0.6 µM; on Prolyl endopeptidase FAP it was > 100 µM.

On to `O=C([C@@H]1C[C@H](n2cc(-c3ccccc3)nn2)CN1C(=O)OCc1ccccc1)N1CCCC1`, for which the half-maximal inhibitory concentration (IC50) on Dipeptidyl peptidase 4 is > 100 µM; at Prolyl endopeptidase, 0.478 µM; on Dipeptidyl peptidase 2, > 100 µM; in assay [1], > 100 µM.

Consider `O=C([C@@H]1C[C@H](n2cc(C3CCCCC3)nn2)CN1C(=O)CCCc1ccccc1)N1CCCC1`, for which the IC50 at Dipeptidyl peptidase 4 is > 100 µM; on Prolyl endopeptidase, 0.147 µM; at Dipeptidyl peptidase 2 it was > 100 µM; in assay [1], > 100 µM; on Prolyl endopeptidase FAP, > 5 µM.

As for `O=C([C@@H]1C[C@H](n2cc(-c3ccc(F)c(F)c3)nn2)CN1C(=O)CCCc1ccccc1)N1CCCC1`, the IC50 on Dipeptidyl peptidase 4 was > 100 µM; against Prolyl endopeptidase, 0.0172 µM; at Dipeptidyl peptidase 2, > 10 µM; in assay [1] it was < 100 µM; on Prolyl endopeptidase FAP it was > 5 µM.

Regarding `O=C([C@@H]1C[C@H](n2cc(-c3ccccc3Cl)nn2)CN1C(=O)CCCc1ccccc1)N1CCCC1`, the IC50 is > 100 µM on Dipeptidyl peptidase 4; 0.023 µM at Prolyl endopeptidase; > 10 µM on Dipeptidyl peptidase 2; > 100 µM in assay [1]; > 5 µM on Prolyl endopeptidase FAP.

`C[Si](C)(C)c1cn([C@H]2C[C@@H](C(=O)N3CCCC3)N(C(=O)OCc3ccccc3)C2)nn1`: the IC50 was > 100 µM at Dipeptidyl peptidase 4; 0.956 µM against Prolyl endopeptidase; > 100 µM at Dipeptidyl peptidase 2; > 100 µM in assay [1]; > 100 µM at Prolyl endopeptidase FAP.

Regarding `O=C([C@@H]1CCCN1C(=O)CCCc1ccccc1)N1CCCC1`, the IC50 (on Dipeptidyl peptidase 4; on Dipeptidyl peptidase 2; in assay [1]; on Prolyl endopeptidase FAP) was > 100 µM each time.

For the compound `[N-]=[N+]=N[C@@H]1C[C@@H](C(=O)N2CCCC2)N(C(=O)CCCc2ccccc2)C1`, the IC50 is > 100 µM at Dipeptidyl peptidase 4; 0.304 µM on Prolyl endopeptidase; > 100 µM on Dipeptidyl peptidase 2; > 100 µM in assay [1]; > 100 µM on Prolyl endopeptidase FAP.

For `CC(C)(C)OC(=O)NCc1cn([C@H]2C[C@@H](C(=O)N3CCCC3)N(C(=O)CCCc3ccccc3)C2)nn1`, the IC50 on Dipeptidyl peptidase 4 is > 100 µM; at Prolyl endopeptidase, 0.032 µM; on Dipeptidyl peptidase 2, > 100 µM; in assay [1], > 100 µM; on Prolyl endopeptidase FAP, > 100 µM.
